From article PMC4195943, “A novel small-molecule MRCK inhibitor blocks cancer cell invasion” (Cell Communication and Signaling : CCS, 2014)

How the values were obtained:
MRCKβ = biological target: T1, MRCKβ (Homo sapiens, UniProt Q9Y5S2); test: MLC phosphorylation in MDA-MB-231 cells expressing doxycycline-induced MRCKβ kinase domain (quantitative western blot); type: cell-based
T1 construct: The kinase domains of MRCKβ (1–473), ROCK1 (1–535) or ROCK2 (1–532) were gene synthesized; expressed in transfected cells; host or cells: MDA-MB-231 D3H2LN-Luc Tet3G cells, pTRE3G-MRCKβ (1–473)
T1 sequence (Q9Y5S2 1-473): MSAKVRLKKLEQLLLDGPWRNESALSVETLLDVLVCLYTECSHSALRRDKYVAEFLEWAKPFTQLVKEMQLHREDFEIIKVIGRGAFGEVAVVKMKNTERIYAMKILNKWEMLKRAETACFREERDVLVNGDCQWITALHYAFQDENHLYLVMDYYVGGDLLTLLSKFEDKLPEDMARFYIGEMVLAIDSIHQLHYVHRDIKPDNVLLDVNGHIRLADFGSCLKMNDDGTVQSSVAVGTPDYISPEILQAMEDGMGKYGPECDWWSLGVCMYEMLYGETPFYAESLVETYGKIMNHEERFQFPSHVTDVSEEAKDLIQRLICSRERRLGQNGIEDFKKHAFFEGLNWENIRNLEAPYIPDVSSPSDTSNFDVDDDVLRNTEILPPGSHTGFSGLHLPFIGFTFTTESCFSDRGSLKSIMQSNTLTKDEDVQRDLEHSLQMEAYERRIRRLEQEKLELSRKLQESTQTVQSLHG
Description: (A) MDA-MB-231 breast cancer cells expressing doxycycline inducible ROCK1, ROCK2 or MRCKβ kinase domains were established as indicated. Following treatment with doxycycline for 18 hours to induce expression, cell lysates were western blotted with antibodies as indicated.
MDA-MB-231 D3H2LN-Luc cells (Caliper LifeScience) were grown in MEM/EBSS (Hyclone) supplemented with 10% fetal bovine serum (FBS) (Gibco), 1 mM Sodium Pyruvate (Sigma) 2 mM L-glutamine (Gibco), 1× MEM non-essential amino acids (Gibco) plus penicillin-streptomycin (10 Units/ml and 10 μg/ml respectively) at 37°C in 5% CO2 in a humidified incubator. MDA-MB-231 D3H2LN-Luc TetOn MRCKβ, ROCK1 and ROCK2 selective cell lines were grown in the same media with 10% FBS replaced with 10% Tet System Approved FBS (Clontech).
The kinase domains of MRCKβ (1–473), ROCK1 (1–535) or ROCK2 (1–532) were gene synthesized (Genscript) and subcloned into pTRE3G (Clontech). MDA-MB-231 D3H2LN-Luc Tet3G cells were co-transfected with pTRE3G-MRCKβ (1–473), pTRE3G-ROCK1 (1–535) or pTRE3G-ROCK2 (1–532), together with a linear Pur^r-selection marker using Xfect transfection reagent according to manufacturer’s instructions. […] Each clone was treated with or without doxycycline (1 μg/ml) for 24 hours and kinase domain expression and activity determined by western blotting. […]

logD = type: physicochemical
ROCK1 = ROCK1 (Homo sapiens, UniProt Q13464); test: IMAP fluorescence polarization kinase assay, ROCK1; type: biochemical; design: purchased Life Technologies; settings: in vitro, 1 μM ATP
Sequence of ROCK1 (Q13464 whole entry): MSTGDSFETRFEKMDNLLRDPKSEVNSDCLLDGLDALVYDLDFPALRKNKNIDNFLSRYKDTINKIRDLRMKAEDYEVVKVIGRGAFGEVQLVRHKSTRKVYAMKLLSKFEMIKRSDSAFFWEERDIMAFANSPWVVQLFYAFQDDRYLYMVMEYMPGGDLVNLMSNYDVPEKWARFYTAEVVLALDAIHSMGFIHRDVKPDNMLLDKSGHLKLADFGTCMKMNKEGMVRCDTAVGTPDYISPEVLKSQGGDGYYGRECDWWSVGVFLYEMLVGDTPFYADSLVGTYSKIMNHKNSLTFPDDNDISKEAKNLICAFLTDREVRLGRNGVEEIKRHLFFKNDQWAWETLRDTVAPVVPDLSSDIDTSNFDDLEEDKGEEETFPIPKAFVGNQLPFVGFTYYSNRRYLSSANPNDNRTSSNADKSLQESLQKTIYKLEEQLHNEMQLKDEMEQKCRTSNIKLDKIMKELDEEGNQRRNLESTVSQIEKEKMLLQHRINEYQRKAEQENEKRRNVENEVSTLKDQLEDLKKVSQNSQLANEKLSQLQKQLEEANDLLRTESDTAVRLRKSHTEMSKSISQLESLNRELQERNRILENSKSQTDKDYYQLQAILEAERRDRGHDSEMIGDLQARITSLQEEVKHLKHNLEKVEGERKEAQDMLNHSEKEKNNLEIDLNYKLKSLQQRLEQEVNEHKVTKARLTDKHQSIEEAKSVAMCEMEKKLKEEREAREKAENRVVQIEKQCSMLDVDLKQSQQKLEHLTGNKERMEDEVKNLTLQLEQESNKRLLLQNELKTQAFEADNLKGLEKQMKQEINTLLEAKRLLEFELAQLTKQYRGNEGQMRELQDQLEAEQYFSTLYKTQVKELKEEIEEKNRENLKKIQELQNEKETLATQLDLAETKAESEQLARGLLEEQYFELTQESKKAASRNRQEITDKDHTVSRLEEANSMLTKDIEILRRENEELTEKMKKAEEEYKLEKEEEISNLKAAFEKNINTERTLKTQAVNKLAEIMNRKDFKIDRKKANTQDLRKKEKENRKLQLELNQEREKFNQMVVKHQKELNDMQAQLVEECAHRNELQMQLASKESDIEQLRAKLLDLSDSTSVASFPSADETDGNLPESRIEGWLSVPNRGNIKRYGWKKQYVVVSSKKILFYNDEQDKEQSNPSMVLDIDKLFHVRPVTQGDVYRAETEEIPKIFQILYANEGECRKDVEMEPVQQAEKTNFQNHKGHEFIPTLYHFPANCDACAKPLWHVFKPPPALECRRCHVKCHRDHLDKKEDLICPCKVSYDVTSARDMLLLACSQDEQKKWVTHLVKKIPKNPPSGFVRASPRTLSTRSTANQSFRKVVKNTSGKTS
Description: (§1) MRCKα, MRCKβ, ROCK1 and ROCK2 assays were performed using an IMAP fluorescence polarization assay format (Molecular Devices Inc.). 8–12 nM of each kinase (Life Technologies) was incubated for 60 min at room temperature with 100 nM FAM-S6-ribosomal protein derived peptide (synthesized by Alta Biosciences, University of Birmingham UK) in the presence of 1 μM ATP and 0.5 mM MgCl2 in 20 mM Tris buffer (pH 7.4) containing 0.01% Tween-20 and 1 mM DTT (MRCKα and β); or 1 μM ATP, 10 mM MgCl2 in 20 mM Tris buffer (pH 7.5) containing 0.25 mM EGTA 0.01% Triton X-100 and 1 mM DTT (ROCK1 and ROCK2). Typically, dose response analyses were performed over concentration ranges from 0.005 - 100 μM. Reactions were stopped by adding 2 assay volumes of 0.25% (v/v) IMAP binding reagent in 1× IMAP binding buffer A (Molecular Devices). After 30 min incubation to allow binding reagent to bind phosphorylated peptide, fluorescence polarization was measured on a Tecan Saphire^2 plate reader at excitation (470 nm) and emission (530 nm) wavelengths. Inhibition was calculated using no inhibitor and no enzyme controls as 0 and 100% inhibition, respectively.

MRCKα = MRCKα (Homo sapiens, UniProt Q5VT25); test: IMAP fluorescence polarization kinase assay, MRCKα; type: biochemical; settings: calculated with Cheng-Prusoff equation
Sequence of MRCKα (Q5VT25 whole entry): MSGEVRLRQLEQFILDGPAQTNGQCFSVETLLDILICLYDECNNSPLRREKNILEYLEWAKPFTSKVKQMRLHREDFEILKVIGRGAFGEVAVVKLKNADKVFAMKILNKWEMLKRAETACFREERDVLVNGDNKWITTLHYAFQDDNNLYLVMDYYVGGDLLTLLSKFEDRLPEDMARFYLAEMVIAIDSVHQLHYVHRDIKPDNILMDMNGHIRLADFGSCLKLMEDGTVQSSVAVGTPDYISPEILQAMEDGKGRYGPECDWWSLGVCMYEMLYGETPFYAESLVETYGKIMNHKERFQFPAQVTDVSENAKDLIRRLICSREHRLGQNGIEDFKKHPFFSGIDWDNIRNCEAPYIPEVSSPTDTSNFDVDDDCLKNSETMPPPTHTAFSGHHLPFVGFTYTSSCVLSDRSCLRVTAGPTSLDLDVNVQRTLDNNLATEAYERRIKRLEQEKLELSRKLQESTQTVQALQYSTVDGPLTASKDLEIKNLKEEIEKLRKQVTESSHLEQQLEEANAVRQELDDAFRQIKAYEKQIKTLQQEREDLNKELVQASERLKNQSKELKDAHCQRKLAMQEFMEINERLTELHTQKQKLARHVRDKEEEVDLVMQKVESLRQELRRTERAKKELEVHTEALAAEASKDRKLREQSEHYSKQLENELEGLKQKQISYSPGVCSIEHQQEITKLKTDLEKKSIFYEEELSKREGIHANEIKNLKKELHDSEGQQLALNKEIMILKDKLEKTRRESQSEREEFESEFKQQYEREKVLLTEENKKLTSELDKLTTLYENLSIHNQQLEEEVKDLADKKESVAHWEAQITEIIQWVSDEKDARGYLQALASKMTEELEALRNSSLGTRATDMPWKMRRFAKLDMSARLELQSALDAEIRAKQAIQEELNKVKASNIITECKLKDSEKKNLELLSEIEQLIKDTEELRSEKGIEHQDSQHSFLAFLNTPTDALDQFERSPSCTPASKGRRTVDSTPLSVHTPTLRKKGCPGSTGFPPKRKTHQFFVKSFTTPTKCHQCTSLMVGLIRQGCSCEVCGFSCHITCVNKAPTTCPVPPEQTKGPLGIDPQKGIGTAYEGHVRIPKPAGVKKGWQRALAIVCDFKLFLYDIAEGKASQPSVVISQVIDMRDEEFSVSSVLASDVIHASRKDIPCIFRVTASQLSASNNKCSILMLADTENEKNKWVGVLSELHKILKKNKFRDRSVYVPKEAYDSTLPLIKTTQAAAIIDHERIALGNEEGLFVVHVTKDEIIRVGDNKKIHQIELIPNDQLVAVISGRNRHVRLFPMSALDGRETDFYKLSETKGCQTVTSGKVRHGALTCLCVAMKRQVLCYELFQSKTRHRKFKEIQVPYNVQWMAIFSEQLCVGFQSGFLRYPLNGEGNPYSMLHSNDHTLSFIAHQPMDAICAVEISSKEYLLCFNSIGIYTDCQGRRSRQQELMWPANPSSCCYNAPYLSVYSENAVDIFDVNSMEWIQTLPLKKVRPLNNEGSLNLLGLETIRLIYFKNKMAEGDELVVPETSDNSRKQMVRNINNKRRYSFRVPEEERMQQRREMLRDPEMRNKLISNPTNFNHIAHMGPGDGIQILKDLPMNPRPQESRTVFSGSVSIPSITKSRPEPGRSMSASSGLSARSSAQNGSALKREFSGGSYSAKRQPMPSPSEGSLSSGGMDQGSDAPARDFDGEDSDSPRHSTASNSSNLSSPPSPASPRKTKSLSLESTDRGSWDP
Description: as §1

inhibition of MRCKβ activity (MLC phosphorylation) (MRCKβ; highest 30 μM concentration) [%] | inhibition of MLC phosphorylation induced by MRCKβ (MRCKβ; 3 μM) | logD (logD) | IC50 (ROCK1) [nM] | Ki (MRCKα) [nM] | SMILES
≤ 50 | – | – | – | – | C[C@@H](N)[C@H]1CC[C@H](C(=O)Nc2ccncc2)CC1 [Y27632, reference compound]
– | completely inhibited | 0.786 | 230 | 10 | O=C(Nc1cn[nH]c1-c1ccccn1)c1nn(C2CCNCC2)cc1Cl [BDP5290, 4-chloro-1-(4-piperidyl)-N-[5-(2-pyridyl)-1H-pyrazol-4-yl]pyrazole-3-carboxamide]
